# Values quoted from earlier work, collected in patent US7572596B2, “Modulation of the neuroendoctrine system as a therapy for motor neuron disease” (University of Pittsburgh of the Commonwealth System of …, priority 2004, dated 2009).
# Key:
# [1] = system: SOD1 transgenic mice; details: Groeneveld, 2003, Desnuelle, 2001
# [2] = system: human ALS patients; details: 2003; for efficacy in human ALS patients: Groeneveld, Desnuelle, 2001
# [3] = system: transgenic model for multiple sclerosis; details: direct administration; Fernandez et al, 2004
SMILES,efficacy in relieving the symptoms of ALS [1],efficacy in human ALS patients [2],"life expectancy of ALS patients ([2]; ALS patients, Miller)",axonal pathology [3],remyelination [3]
CN(CC(=O)O)C(=N)N [Creatine],some efficacy,minimal efficacy,–,–,–
Nc1nc2ccc(OC(F)(F)F)cc2s1 [Riluzole],–,–,extends life expectancy by only a few months,–,–
NC(Cc1cc(I)c(Oc2cc(I)c(O)c(I)c2)c(I)c1)C(=O)O (stereo not shown) [T4],–,–,–,neuroprotective for axonal pathology,enhances remyelination
Cc1c(C)c2c(c(C)c1O)CC[C@@](C)(CCC[C@H](C)CCC[C@H](C)CCCC(C)C)O2 [a-tocopherol],some efficacy,minimal efficacy,–,–,–
